Data published in paper PMC9462664, “Preparation and identification of anti-breast cancer cells peptides released from yak milk casein” (Frontiers in Nutrition, 2022).
No end group written: not given here.

Assays:
MCF7 cells [1] = assay type: cell-based
Procedure: (§1) The culture medium of MDA-MB-231 and MCF7 cells were DMEM containing 10% FBS and 1% AAC. The culture medium of MCF10A was DMEM/F12 containing CT (100°ng/mL), EGF (20°ng/mL), HS (5%), hydrocortisone (0.5°μg/mL), and insulin (10°ug/mL). All the cells were incubated using an incubator (MCO-20AIC, SANYO, Japan) with 5% CO2 and 95% humidity at 37°C.
(§2) Cell activity inhibition was conducted using a CCK8 kit according to the procedure offered by the manufacturer. The trypsinized cells were transferred into the 96-well plate (8,000 cells/well) and cultured for 24 h, then they were incubated with PBS (Control), YMCH (250°μg/mL) or synthetic peptides (0, 62.5, 125, 250, 500, and 1,000°μg/mL) for 48 h or 24–72 h. The CCK8 agent (20°μL) was pipetted into the well followed by incubation (37 °C, 4 h). The absorbance of the medium was acquired at 450 nm using a microplate reader (Multiskan Spectrum, Thermo, Waltham, MA, United States). Finally, according to the below formulae, the cell viability and its inhibition rate were calculated.
(§3) Cellviability(%)=Absorbanceofmediumfromthetreatmentgroup/Absorbanceofmediumfromthecontrolgroup×100
(§4) Inhibitionrateofcellviability(%)=(1Absorbanceofmediumfromthetreatmentgroup/Absorbanceofmediumfromthecontrolgroup)×100

MDA-MB-231 cells [2] = assay type: cell-based
Procedure: as §1, §2, §3, §4

MCF7 cells [3] = assay: Cell cycle determination (PI, flow cytometry); assay type: cell-based; settings: 250 μg/mL, 48 h
Procedure: (§5) Cell cycle determination was conducted using a cell cycle kit according to its instructions. Trypsinized cells (MDA-MB-231 or MCF7) were pipetted into the 6-well plate and cultured. When cells confluence reached 50%, peptides were added to the wells, and the treatment lasted 48 h. The cells were harvested and washed with PBS. After being fixed by cold 75% ethanol, cells were treated with RNase A followed by incubation with PI. Finally, the cell cycles of samples were measured by a BD flow cytometer (FACS101, Becton, Dickinson and Company, Franklin Lakes, NJ, United States).
(§6) FIGURE 6 TPVVVPPFL elicited cell arrest of mammary carcinoma cells. MCF7 cells were incubated with TPVVVPPFL for 48 h at the concentration of 250°μg/mL. MDA-MB-231 cells were incubated with TPVVVPPFL for 48 h at the concentration of 500°μg/mL. The cell cycle distributions were analyzed using flow cytometry after treatment with PI.

MDA-MB-231 cells [4] = assay: Cell cycle determination (PI, flow cytometry); assay type: cell-based; settings: 500 μg/mL, 48 h
Procedure: as §5, §6

pepsin and trypsin = assay: Stability against simulated gastrointestinal digestion; assay type: in vitro ADME; settings: peptide 5 mg/mL, pepsin pH 1.2, 37°C, 2 h, then trypsin pH 8, 37°C, enzyme:peptide 1:100 (w/w), RP-HPLC, new peaks digested vs undigested
Procedure: Stability of peptides against simulated gastrointestinal digestion was performed according to the method outlined previously with slight modification ([19]). Briefly, peptide solution (5 mg/mL) was digested by pepsin (pH 1.2, 37°C) for 2 h. Then the pH of the resulting solution was altered to eight with NaOH (1.0°M) to inactivate pepsin, and the peptides solution was further digested by trypsin (2 h, 37°C). Finally, trypsin was inactivated by a hot water bath (95°C, 10 min). The ratio of enzyme to peptide was 1:100 (w/w) in the two digesting processes. The digested and undigested samples were loaded into HPLC (1260 Infinity, Agilent, Santa Clara, CA, United States), respectively, to evaluate the stability of the peptides. […]

MCF7 cells [5] = assay: Cell apoptosis determination (Annexin V/PI, flow cytometry); assay type: cell-based; settings: 250 μg/mL, 48 h, Annexin-V and PI, mean ± SD
Procedure: (§7) Cell apoptosis determination was conducted by Annexin V staining of externalized phosphatidylserine in apoptotic cells using a cell apoptosis kit. Then the proportion of the apoptotic cells was analyzed by a BD flow cytometry (FACS101, Becton, Dickinson and Company, Franklin Lakes, NJ, United States).
(§8) FIGURE 7 TPVVVPPFL induced morphology alteration (A) and apoptosis of mammary carcinoma cells (B). MCF7 and MDA-MB-231 cells were incubated with TPVVVPPFL for 48 h at the concentration of 250 and 500°μg/mL, respectively. The image of the two cells was acquired by the inverted microscope, and the apoptotic cells were measured using a flow cytometry after treatment with Annexin-V and PI.

MDA-MB-231 cells [6] = assay: as above; assay type: cell-based; settings: 500 μg/mL, 48 h, Annexin-V and PI, mean ± SD
Procedure: as §7, §8

Sequence	IC50 (MCF7 cells [1]) [µg/mL]	IC50 (MDA-MB-231 cells [2]) [µg/mL]	cell cycle arrest (MCF7 cells [3])	cell cycle arrest (MDA-MB-231 cells [4])	stability against simulated gastrointestinal digestion (pepsin and trypsin)	apoptosis rate (MCF7 cells [5]) [%]	apoptosis rate (MDA-MB-231 cells [6]) [%]
TPVVVPPFL [TPVVVPPFL]	250	500	G2/M arrest	S arrest	stable in the simulated digestion condition	48.37 ± 2.74	35.11 ± 2.95
VAPFPEVFGK [VAPFPEVFGK]					hydrolyzed		
NQFLPYPY [NQFLPYPY]					stable in the simulated digestion condition		
